Measurements published in PubChem BioAssay (NCI).
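Five concentrations, 48 hours, 96-well plates. TGI marks complete inhibition of growth.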

Key:
Experiment in all cases: NCI-60 cell line screen, 48 h
HCT-116 colon = system: HCT-116 colon
UO-31 renal = system: UO-31 renal
K-562 leukemia = system: K-562 leukemia
SW-620 colon = system: SW-620 colon
HS 578T breast = system: HS 578T breast
OVCAR-3 ovarian = system: OVCAR-3 ovarian
DU-145 prostate = system: DU-145 prostate
OVCAR-5 ovarian = system: OVCAR-5 ovarian
RXF 393 renal = system: RXF 393 renal
786-0 renal = system: 786-0 renal
ACHN renal = system: ACHN renal
HOP-92 NSCLC = system: HOP-92 NSCLC
LOX IMVI melanoma = system: LOX IMVI melanoma
SK-OV-3 ovarian = system: SK-OV-3 ovarian
MDA-MB-231 breast = system: MDA-MB-231 breast
CAKI-1 renal = system: CAKI-1 renal
NCI-H522 lung = system: NCI-H522 lung
HL-60(TB) leukemia = system: HL-60(TB) leukemia
UACC-62 melanoma = system: UACC-62 melanoma
NCI-H226 lung = system: NCI-H226 lung
IGROV1 ovarian = system: IGROV1 ovarian
MCF7 breast = system: MCF7 breast
KM12 colon = system: KM12 colon
SNB-19 CNS = system: SNB-19 CNS
RPMI-8226 leukemia = system: RPMI-8226 leukemia
MDA-N = system: MDA-N
T-47D breast = system: T-47D breast
SK-MEL-28 melanoma = system: SK-MEL-28 melanoma
MOLT-4 leukemia = system: MOLT-4 leukemia
M14 melanoma = system: M14 melanoma
A549 NSCLC = system: A549 NSCLC
NCI-H460 lung = system: NCI-H460 lung
MALME-3M melanoma = system: MALME-3M melanoma
SF-268 CNS = system: SF-268 CNS
SF-539 CNS = system: SF-539 CNS
NCI-H23 lung = system: NCI-H23 lung
MDA-MB-435 = system: MDA-MB-435
OVCAR-8 ovarian = system: OVCAR-8 ovarian
COLO 205 colon = system: COLO 205 colon
SF-295 CNS = system: SF-295 CNS
CCRF-CEM leukemia = system: CCRF-CEM leukemia
U251 CNS = system: U251 CNS
TK-10 renal = system: TK-10 renal
SNB-75 CNS = system: SNB-75 CNS
SK-MEL-5 melanoma = system: SK-MEL-5 melanoma
SK-MEL-2 melanoma = system: SK-MEL-2 melanoma
UACC-257 melanoma = system: UACC-257 melanoma
OVCAR-4 ovarian = system: OVCAR-4 ovarian
SN12C renal = system: SN12C renal
EKVX NSCLC = system: EKVX NSCLC
HT29 colon = system: HT29 colon
SR leukemia = system: SR leukemia
HCT-15 colon = system: HCT-15 colon
HOP-62 NSCLC = system: HOP-62 NSCLC
PC-3 prostate = system: PC-3 prostate
NCI/ADR-RES ovarian = system: NCI/ADR-RES ovarian
A498 renal = system: A498 renal
HCC-2998 colon = system: HCC-2998 colon

## CC1(C)OC(=O)C(C)(C)OC1=O
HCT-116 colon
  TGI: > 100 µM
UO-31 renal
  TGI: > 100 µM
K-562 leukemia
  TGI: > 100 µM
SW-620 colon
  TGI: > 100 µM
HS 578T breast
  TGI: > 100 µM
OVCAR-3 ovarian
  TGI: > 100 µM
DU-145 prostate
  TGI: > 100 µM
OVCAR-5 ovarian
  TGI: > 100 µM
RXF 393 renal
  TGI: > 100 µM
786-0 renal
  TGI: > 100 µM
ACHN renal
  TGI: > 100 µM
HOP-92 NSCLC
  TGI: > 100 µM
LOX IMVI melanoma
  TGI: > 100 µM
SK-OV-3 ovarian
  TGI: > 100 µM
MDA-MB-231 breast
  TGI: > 100 µM
CAKI-1 renal
  TGI: > 100 µM
NCI-H522 lung
  TGI: > 100 µM
HL-60(TB) leukemia
  TGI: > 100 µM
UACC-62 melanoma
  TGI: > 100 µM
NCI-H226 lung
  TGI: > 100 µM
IGROV1 ovarian
  TGI: > 100 µM
MCF7 breast
  TGI: > 100 µM
KM12 colon
  TGI: > 100 µM
SNB-19 CNS
  TGI: > 100 µM
RPMI-8226 leukemia
  TGI: > 100 µM
MDA-N
  TGI: > 100 µM
T-47D breast
  TGI: > 100 µM
SK-MEL-28 melanoma
  TGI: > 100 µM
MOLT-4 leukemia
  TGI: > 100 µM
M14 melanoma
  TGI: > 100 µM
A549 NSCLC
  TGI: > 100 µM
NCI-H460 lung
  TGI: > 100 µM
MALME-3M melanoma
  TGI: > 100 µM
SF-268 CNS
  TGI: > 100 µM
SF-539 CNS
  TGI: > 100 µM
NCI-H23 lung
  TGI: > 100 µM
MDA-MB-435
  TGI: > 100 µM
OVCAR-8 ovarian
  TGI: > 100 µM
COLO 205 colon
  TGI: > 100 µM
SF-295 CNS
  TGI: > 100 µM
CCRF-CEM leukemia
  TGI: > 100 µM
U251 CNS
  TGI: > 100 µM
TK-10 renal
  TGI: > 100 µM
SNB-75 CNS
  TGI: > 100 µM
SK-MEL-5 melanoma
  TGI: > 100 µM
SK-MEL-2 melanoma
  TGI: > 100 µM
UACC-257 melanoma
  TGI: > 100 µM
OVCAR-4 ovarian
  TGI: > 100 µM
SN12C renal
  TGI: > 100 µM
EKVX NSCLC
  TGI: > 100 µM
HT29 colon
  TGI: > 100 µM
SR leukemia
  TGI: > 100 µM
HCT-15 colon
  TGI: > 100 µM
HOP-62 NSCLC
  TGI: > 100 µM
PC-3 prostate
  TGI: > 100 µM
NCI/ADR-RES ovarian
  TGI: > 100 µM
A498 renal
  TGI: > 100 µM

## COc1cc(OC)c(OC)cc1/C=C1\C=Cc2ccccc21
HCT-116 colon
  TGI: 21.9 µM
UO-31 renal
  TGI: 64.2 µM
K-562 leukemia
  TGI: > 100 µM
SW-620 colon
  TGI: 35.4 µM
HS 578T breast
  TGI: 96.2 µM
DU-145 prostate
  TGI: > 100 µM
OVCAR-5 ovarian
  TGI: > 100 µM
RXF 393 renal
  TGI: 49.7 µM
786-0 renal
  TGI: > 100 µM
ACHN renal
  TGI: > 100 µM
LOX IMVI melanoma
  TGI: 33.4 µM
SK-OV-3 ovarian
  TGI: 59.8 µM
MDA-MB-231 breast
  TGI: 50.9 µM
NCI-H522 lung
  TGI: 51.2 µM
HL-60(TB) leukemia
  TGI: 35.2 µM
NCI-H226 lung
  TGI: > 100 µM
IGROV1 ovarian
  TGI: > 100 µM
MCF7 breast
  TGI: > 100 µM
KM12 colon
  TGI: 41.8 µM
RPMI-8226 leukemia
  TGI: > 100 µM
MDA-N
  TGI: 58.2 µM
T-47D breast
  TGI: > 100 µM
SK-MEL-28 melanoma
  TGI: 47.6 µM
MOLT-4 leukemia
  TGI: 44.4 µM
A549 NSCLC
  TGI: > 100 µM
NCI-H460 lung
  TGI: 38 µM
MALME-3M melanoma
  TGI: 56.8 µM
SF-268 CNS
  TGI: > 100 µM
SF-539 CNS
  TGI: 35.8 µM
NCI-H23 lung
  TGI: > 100 µM
MDA-MB-435
  TGI: 14.5 µM
OVCAR-8 ovarian
  TGI: > 100 µM
COLO 205 colon
  TGI: > 100 µM
SF-295 CNS
  TGI: 57.6 µM
CCRF-CEM leukemia
  TGI: > 100 µM
U251 CNS
  TGI: > 100 µM
TK-10 renal
  TGI: 80 µM
SK-MEL-5 melanoma
  TGI: 26.1 µM
UACC-257 melanoma
  TGI: 37.7 µM
SN12C renal
  TGI: 36.7 µM
EKVX NSCLC
  TGI: > 100 µM
HT29 colon
  TGI: > 100 µM
SR leukemia
  TGI: > 100 µM
HCC-2998 colon
  TGI: 28.4 µM
HCT-15 colon
  TGI: 61.4 µM
HOP-62 NSCLC
  TGI: 37.5 µM
PC-3 prostate
  TGI: > 100 µM
NCI/ADR-RES ovarian
  TGI: > 100 µM
